Results taken from patent US20230104936A1, “TRPML MODULATORS” (Casma Therapeutics, Inc., priority 2019, published 2023).

System: TFEB
Experiment: TFEB nuclear translocation assay, HeLa wt cells
Format: cell-based
Details: Homo sapiens, HeLa, 2 h, 2 hrs compound treatment, Table 1 does not say HeLa wt or TRPML1 KO
Outline: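 Read-out is the ratio of TFEB immunofluorescence in the nucleus to that in a ring just outside it, measured by automated imaging. HeLa wt cells received compounds for 2 hrs at 37° C before fixation and staining; AC50 values come from this ratio.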

Structure (SMILES)	AC50
CN(C)S(=O)(=O)c1ccc(S(=O)(=O)Nc2ccccc2N2CCN(C(=O)C3CC34CC4)CC2)cc1 (stereo not drawn) [Compound A-462, N1,N1-dimethyl-N4-[2-(4-{spiro[2.2]pentane-1-carbonyl}piperazin-1-yl)phenyl]benzene-1,4-disulfonamide]	2010 to 8000 nM
CCC1(N2CCN(c3ccccc3NS(=O)(=O)c3ccc(S(=O)(=O)N(C)C)cc3)CC2)COC1 [Compound A-464, N4-{2-[4-(3-ethyloxetan-3-yl)piperazin-1-yl]phenyl}-N1,N1-dimethylbenzene-1,4-disulfonamide]	2010 to 8000 nM
CC(c1ccccc1N1CCN(Cc2ccccc2)CC1)S(=O)(=O)c1ccc(S(=O)(=O)N(C)C)cc1 (stereo not drawn) [Compound A-465, 4-((1-(2-(4-benzylpiperazin-1-yl)phenyl)ethyl)sulfonyl)-N,N-dimethylbenzenesulfonamide]	≤ 2000 nM
COCCN1CC2(CCN(c3ccccc3NS(=O)(=O)c3ccc(S(C)(=O)=O)cc3)CC2)c2ccc(F)cc21 [Compound A-466, N-{2-[6-fluoro-1-(2-methoxyethyl)-1,2-dihydrospiro[indole-3,4′-piperidin]-1′-yl]phenyl}-4-methanesulfonylbenzene-1-sulfonamide]	≤ 2000 nM
CS(=O)(=O)c1ccc(S(=O)(=O)Nc2ccccc2N2CCC3(CC2)CN(CC2CCCO2)c2cc(F)ccc23)cc1 (stereo not drawn) [Compound A-467, N-(2-{6-fluoro-1-[(oxolan-2-yl)methyl]-1,2-dihydrospiro[indole-3,4′-piperidin]-1′-yl}phenyl)-4-methanesulfonylbenzene-1-sulfonamide]	≤ 2000 nM
CS(=O)(=O)c1ccc(S(=O)(=O)Nc2ccccc2N2CCC3(CC2)CN(CC2CC2(F)F)c2cc(F)ccc23)cc1 (stereo not drawn) [Compound A-468, N-(2-{1-[(2,2-difluorocyclopropyl)methyl]-6-fluoro-1,2-dihydrospiro[indole-3,4′-piperidin]-1′-yl}phenyl)-4-methanesulfonylbenzene-1-sulfonamide]	≤ 2000 nM
CS(=O)(=O)c1ccc(S(=O)(=O)Nc2ccccc2N2CCC3(CC2)CN(C(=O)OC2CCOC2)c2cc(F)ccc23)cc1 (stereo not drawn) [Compound A-469, oxolan-3-yl 6-fluoro-1′-[2-(4-methanesulfonylbenzenesulfonamido)phenyl]-1,2-dihydrospiro[indole-3,4′-piperidine]-1-carboxylate]	≤ 2000 nM
CN(C)S(=O)(=O)c1ccc(S(=O)(=O)Nc2ccccc2N2CCC(C(=O)C(C)(C)C)CC2)cc1 [Compound A-470, N4-{2-[4-(2,2-dimethylpropanoyl)piperidin-1-yl]phenyl}-N1,N1-dimethylbenzene-1,4-disulfonamide]	≤ 2000 nM
CN(C)S(=O)(=O)c1ccc(S(=O)(=O)Nc2ccccc2N2CCC(O)(C(C)(C)C)CC2)cc1 [Compound A-471, N1-(2-(4-(tert-butyl)-4-hydroxypiperidin-1-yl)phenyl)-N4,N4-dimethylbenzene-1,4-disulfonamide]	≤ 2000 nM
CN1CC2(CCN(c3ccccc3NS(=O)(=O)c3ccc(S(=O)(=O)N(C)C)cc3)C(=O)C2)c2ccc(F)cc21 (stereo not drawn) [Compound A-472, N4-(2-{6-fluoro-1-methyl-2′-oxo-1,2-dihydrospiro[indole-3,4′-piperidin]-1′-yl}phenyl)-N1,N1-dimethylbenzene-1,4-disulfonamide]	≤ 2000 nM
CN(C)S(=O)(=O)c1ccc(S(=O)(=O)Nc2ccccc2N2CCC3(CC2)OC(=O)c2cc(F)cnc23)cc1 [Compound A-473, N4-(2-{3-fluoro-5-oxo-5H-spiro[furo[3,4-b]pyridine-7,4′-piperidin]-1′-yl}phenyl)-N1,N1-dimethylbenzene-1,4-disulfonamide]	2010 to 8000 nM
CC(c1ccccc1N1CCN(C(=O)C(C)(C)C)CC1)S(=O)(=O)c1ccc(S(=O)(=O)N(C)C)cc1 (stereo not drawn) [Compound A-474, 4-(1-{2-[4-(2,2-dimethylpropanoyl)piperazin-1-yl]phenyl}ethanesulfonyl)-N,N-dimethylbenzene-1-sulfonamide]	2010 to 8000 nM
CCC1(N2CCCCC2)CCN(c2ccccc2NS(=O)(=O)c2ccc(S(=O)(=O)N(C)C)cc2)CC1 [Compound A-475, N4-(2-{4′-ethyl-[1,4′-bipiperidin]-1′-yl}phenyl)-N1,N1-dimethylbenzene-1,4-disulfonamide]	≤ 2000 nM
CN(C)S(=O)(=O)c1ccc(S(=O)(=O)Nc2ccccc2N2CCN(C(=O)C3(C)CCCO3)CC2)cc1 (stereo not drawn) [Compound A-476, N1,N1-dimethyl-N4-{2-[4-(2-methyloxolane-2-carbonyl)piperazin-1-yl]phenyl}benzene-1,4-disulfonamide]	2010 to 8000 nM
CN(C)S(=O)(=O)c1ccc(S(=O)(=O)Nc2ccccc2N2CCN(C(=O)C3(C)CC(F)(F)C3)CC2)cc1 [Compound A-478, N4-{2-[4-(3,3-difluoro-1-methylcyclobutanecarbonyl)piperazin-1-yl]phenyl}-N1,N1-dimethylbenzene-1,4-disulfonamide]	2010 to 8000 nM
CN(C)S(=O)(=O)c1ccc(S(=O)(=O)Nc2ccccc2N2CCC(C3CC3(F)F)CC2)cc1 (stereo not drawn) [Compound A-479, N4-{2-[4-(2,2-difluorocyclopropyl)piperidin-1-yl]phenyl}-N1,N1-dimethylbenzene-1,4-disulfonamide]	≤ 2000 nM
CN(C)S(=O)(=O)c1ccc(S(=O)(=O)Nc2ccccc2N2CCCN(C(=O)C(C)(C)C)CC2)cc1 [Compound A-480, N4-{2-[4-(2,2-dimethylpropanoyl)-1,4-diazepan-1-yl]phenyl}-N1,N1-dimethylbenzene-1,4-disulfonamide]	2010 to 8000 nM

Structure (SMILES)	AC50
CS(=O)(=O)c1ccc(S(=O)(=O)Nc2ccccc2N2CCC3(CC2)COCc2ccccc23)cc1 [Compound A-481, N-(2-{1,3-dihydrospiro[2-benzopyran-4,4′-piperidin]-1′-yl}phenyl)-4-methanesulfonylbenzene-1-sulfonamide]	≤ 2000 nM
NS(=O)(=O)c1ccc(S(=O)(=O)Nc2ccccc2N2CCC(c3ccc(Cl)cc3F)CC2)cc1 [Compound A-482, N1-{2-[4-(4-chloro-2-fluorophenyl)piperidin-1-yl]phenyl}benzene-1,4-disulfonamide]	2010 to 8000 nM
COCC1(C)CCN(c2ccccc2NS(=O)(=O)c2ccc(C(C)(C)C)cc2)CC1 [Compound A-483, 4-tert-butyl-N-{2-[4-(methoxymethyl)-4-methylpiperidin-1-yl]phenyl}benzene-1-sulfonamide]	≤ 2000 nM
CN(C)S(=O)(=O)c1ccc(S(=O)(=O)Nc2ccccc2N2CCCN(C3CC3)CC2)cc1 [Compound A-484, N4-[2-(4-cyclopropyl-1,4-diazepan-1-yl)phenyl]-N1,N1-dimethylbenzene-1,4-disulfonamide]	2010 to 8000 nM
CC(C)(C)C(=O)N1CCN(c2ccccc2NS(=O)(=O)Cc2cccc(Br)c2)CC1 [Compound A-485, 1-(3-bromophenyl)-N-{2-[4-(2,2-dimethylpropanoyl)piperazin-1-yl]phenyl}methanesulfonamide]	2010 to 8000 nM
Cc1ccc(CS(=O)(=O)Nc2ccccc2N2CCN(C(=O)C(C)(C)C)CC2)cc1C [Compound A-486, 1-(3,4-dimethylphenyl)-N-{2-[4-(2,2-dimethylpropanoyl)piperazin-1-yl]phenyl}methanesulfonamide]	2010 to 8000 nM
CN(C)S(=O)(=O)c1ccc(S(=O)(=O)Nc2ccccc2N2CCN(C(=O)C34CCCCC3C4)CC2)cc1 (stereo not drawn) [Compound A-487, N4-[2-(4-{bicyclo[4.1.0]heptane-1-carbonyl}piperazin-1-yl)phenyl]-N1,N1-dimethylbenzene-1,4-disulfonamide]	≤ 2000 nM
CC(C)(C)C(=O)N1CCN(c2ccccc2NS(=O)(=O)Cc2ccc(Br)cc2F)CC1 [Compound A-488, 1-(4-bromo-2-fluorophenyl)-N-{2-[4-(2,2-dimethylpropanoyl)piperazin-1-yl]phenyl}methanesulfonamide]	8010 to 9990 nM
COCC1(C)CCN(c2ccccc2NS(=O)(=O)c2ccc(CC(C)(C)C)cc2)CC1 [Compound A-489, 4-(2,2-dimethylpropyl)-N-{2-[4-(methoxymethyl)-4-methylpiperidin-1-yl]phenyl}benzene-1-sulfonamide]	2010 to 8000 nM
COCC1(C)CCN(c2ccccc2NC(C)c2ccc(S(=O)(=O)N(C)C)cc2)CC1 (stereo not drawn) [Compound A-490, 4-[1-({2-[4-(methoxymethyl)-4-methylpiperidin-1-yl]phenyl}amino)ethyl]-N,N-dimethylbenzene-1-sulfonamide]	≥ 10000 nM
COCC1(C)CCN(c2ccccc2C(C)S(=O)(=O)c2ccc(S(=O)(=O)N(C)C)cc2)CC1 (stereo not drawn) [Compound A-491, 4-(1-{2-[4-(methoxymethyl)-4-methylpiperidin-1-yl]phenyl}ethanesulfonyl)-N,N-dimethylbenzene-1-sulfonamide]	≤ 2000 nM
CN1CCC2(CCN(c3ccccc3NS(=O)(=O)c3ccc(S(C)(=O)=O)cc3)CC2)c2ccccc21 [Compound A-492, 4-methanesulfonyl-N-(2-{1′-methyl-2′,3′-dihydro-1′H-spiro[piperidine-4,4′-quinolin]-1-yl}phenyl)benzene-1-sulfonamide]	≤ 2000 nM
COCC1(C)CCN(c2ccccc2CS(=O)(=O)c2ccc(S(=O)(=O)N(C)C)cc2)CC1 [Compound A-493, 4-({2-[4-(methoxymethyl)-4-methylpiperidin-1-yl]phenyl}methanesulfonyl)-N,N-dimethylbenzene-1-sulfonamide]	≤ 2000 nM
CN(C)S(=O)(=O)c1ccc(S(=O)(=O)Nc2ccccc2N2CCC(COC(C)(C)C)CC2)cc1 [Compound A-494, N4-(2-{4-[(tert-butoxy)methyl]piperidin-1-yl}phenyl)-N1,N1-dimethylbenzene-1,4-disulfonamide]	≤ 2000 nM
CN(C)S(=O)(=O)c1ccc(S(=O)(=O)Nc2ccccc2N2CCN(CC3CCCO3)CC2)cc1 (stereo not drawn) [Compound A-495, N1,N1-dimethyl-N4-(2-{4-[(oxolan-2-yl)methyl]piperazin-1-yl}phenyl)benzene-1,4-disulfonamide]	8010 to 9990 nM
COCCCC1CCN(c2ccccc2NS(=O)(=O)c2ccc(S(=O)(=O)N(C)C)cc2)CC1 [Compound A-496, N4-{2-[4-(3-methoxypropyl)piperidin-1-yl]phenyl}-N1,N1-dimethylbenzene-1,4-disulfonamide]	≤ 2000 nM
